# According to patent US20220323479A1, “COMPOSITIONS AND METHODS USING ADENOSYLCOBALAMIN” (SOCIETE DES PRODUITS NESTLE S.A., priority 2019, published 2022):
# Columns and labels:
# [1] = tested on: human skeletal muscle myotubes; experiment: Oxygen consumption rate / ATP-synthase-dependent respiration (Seahorse XF96) in epibatidine-stimulated myotubes; format: cell-based; conditions: myotubes treated 3 h, stimulated with epibatidine 10 μM, oligomycin 2.5 μg/ml; vs control
# Method: (§1) To test the effect of adenosyl B12 and methyl B12 in human muscle myotubes, oxygen consumption rate and ATP production were measured in human myotubes, differentiated from primary adult muscle cells (HSMM). HSMM were purchased from Lonza (https://bioscience.lonza.com). HSMM were isolated from the upper arm or leg muscle tissue of normal donors and used after the second passage. HSMM were seeded in 96-well plates at a density of 12000 cells per well in SKM-M medium (ZenBio). Myotubes were differentiated from HSMM by growing the cells in DMEM/F-12 (Gibco) containing 2% horse serum, for 4 days. From the second growing day, the medium was not containing B12.
# Oxygen consumption was measured using a XF96 instrument (Seahorse Biosciences, North Billerica, Mass., USA). After differentiation, respiration rates were determined every 7 min at 37° C. Myotubes were stimulated with 10 μM epibatidine. […] ATP synthase-dependent respiration was calculated as the difference in respiration rate before and after the addition of oligomycin.
# (§2) For treatment, compounds were directly added to the cell culture or myotubes cultures 3 hours (acute treatment) or 3 days (chronic treatment) before measurements. Custom module analysis based on Excel (Microsoft) and GraphPad Prism 7.02 (GraphPad) software was used for quantification.
# [2] = tested on: human skeletal muscle myotubes; experiment: Luciferase-based ATP production evoked by epibatidine in myotubes; format: cell-based; conditions: vs control
# Method: as §1
# ATP measurements were carried out using myotubes infected with the adenovirus (from Sirion biotech) expressing luciferase. Luminescence was measured at the Cytation 3 cell imaging reader (Biotek). Relative changes of ATP were measured 48 h after infection in a luminometer, in standard medium containing 145 mM NaCl, 5 mM KCl, 1 mM MgCl2, 1 mM CaCl2), 10 mM glucose and 10 mM Hepes, pH 7.4. Luciferine (5 μM) was added to promote ATP-dependent reaction and basal luminescence was normalized as 100%. ATP production was stimulated in myotubes by addition of epibatidine.
# as §2
# [3] = tested on: oxidative phosphorylation genes in skeletal muscle; experiment: Gene-set enrichment and network analysis of skeletal muscle (tibialis anterior) RNA of treated old rats; format: in vivo, Male Wistar rats; conditions: 1 mg/kg s.c. 3 times a week, 5 months; for network analysis of regulated genes (protein-protein interactions): interaction score >0.9
# Method: (§3) Male Wistar rats aged 3 months or 19 months were treated with adenosylcobalamin (Adenosyl-B12) or methylcobalamin (Methyl-B12) at a dose of 1 mg/kg 3 times a week during 5 months by subcutaneous injection. Control animals were injected with equivalent volumes of saline. After 5 months treatment, adult rats were defined as 8 months old rats and old (aged) animals were defined as 24 old rodents.
# Total RNA was extracted from tibialis anterior using the Agencourt RNAdvance Tissue Kit. For Gene-set enrichment analysis and Network analysis, RNA quantity was measured with Ribogreen and RNA quality was checked using the Standard Sensitivity RNA Analysis Kit on a Fragment Analyzer. All cRNA targets were synthesized using the IVT plus kit and fragmented according to the Affymetrix protocol, based on the Eberwine T7 procedure. Briefly, 100 ng of total RNA were used to produce double-stranded cDNA, followed by in vitro transcription, and cRNA labeling with biotin. Gene-set enrichment analysis (GSEA) of skeletal muscle describe the significant pathway differentially expressed (FIG. 5A). For Network analysis (FIG. 5B), nodes with an interaction score >0.9 are represented in different gray levels and aggregated by biological function.
# aged rats = experiment: Rotarod muscle performance / locomotor coordination; format: in vivo, Male Wistar rats; conditions: 1 mg/kg s.c. 3 times a week, 5 months, vs control
# Method: as §3
# To determine muscle performance (FIG. 6), locomotor coordination was measured using rotarod device. […] The time of activity on rotarod is measured in seconds. Each animal was recorded 3 times, with a resting period of at least 10 min between each trial.
Compound,ATP-synthase-dependent component of the respiration [1],"epibatine-stimulated ATP production ([2]; acute treatment, 3 h)","epibatine-stimulated ATP production ([2]; chronic treatment, 3 days)","gene expression signature of oxidative phosphorylation genes (enrichment plot analysis, GSEA) ([3]; Adenosyl-B12 vs Methyl-B12)",network analysis of regulated genes (protein-protein interactions) [3],time of activity on rod (aged rats)
"C/C1=C2/[N-][C@H]([C@H](CC(N)=O)[C@@]2(C)CCC(=O)NC[C@@H](C)OP(=O)([O-])O[C@H]2[C@@H](O)[C@@H](n3cnc4cc(C)c(C)cc43)O[C@@H]2CO)[C@]2(C)N=C(/C(C)=C3N=C(/C=C4N=C1[C@@H](CCC(N)=O)C\4(C)C)[C@@H](CCC(N)=O)[C@]\3(C)CC(N)=O)[C@@H](CCC(N)=O)[C@]2(C)CC(N)=O.[CH2-][C@H]1O[C@@H](n2cnc3c(N)ncnc32)[C@H](O)[C@@H]1O.[Co] [Adenosyl B12, adenosylcobalamin]",increases the ATP-synthase-dependent component of the respiration,potentiates epibatine-stimulated ATP production,potentiates epibatine-stimulated ATP production,specifically shows gene expression signature of oxidative phosphorylation genes in skeletal muscle,"distinguished several clusters linked to mitochondrial respiratory chain complexes, oxidative phosphorylation and mitochondrial function",significantly increased
"C/C1=C2/[N-][C@H]([C@H](CC(N)=O)[C@@]2(C)CCC(=O)NC[C@H](C)OP(=O)([O-])O[C@H]2[C@@H](O)[C@@H](n3cnc4cc(C)c(C)cc43)O[C@@H]2CO)[C@]2(C)N=C(/C(C)=C3N=C(/C=C4N=C1[C@@H](CCC(N)=O)C\4(C)C)[C@@H](CCC(N)=O)[C@]\3(C)CC(N)=O)[C@@H](CCC(N)=O)[C@]2(C)CC(N)=O.[CH3-].[Co+3] [methyl B12, methylcobalamin, reference compound]",does not increase the ATP-synthase-dependent component of the respiration,not methyl B12 potentiates epibatine-stimulated ATP production,,,No network representation of oxidative phosphorylation genes is possible,
